In brackets after ≈: the same amount, converted by molar mass.

The subject of series [1] is Acinetobacter baumannii isolates resistant to classical antibiotics. The class given is cell-based. From the text:
Thus, shortening the number of carbon atoms between the side-chain amino group and the α-carbon atom from four (Lys) to one (diaminopropionic acid) had very little effect on antibacterial activity (Table 2). We also determined the antibacterial activity of our five AMPs against 20 additional Acinetobacter baumannii isolates from four continents, 12 different countries and 17 different cities that were resistant to 18 different antibiotics. […] Thus, it is very clear that changing the type of positively-charged residue on the polar face of these AMPs had very little effect on the antibacterial activities.

Series [2] concerns Acinetobacter baumannii strains resistant to Polymyxin B and Colistin. The following applies: Mueller-Hinton medium, 37° C., 24 h.
For the next series, the system named is A. baumannii strain 649. The class given is cell-based, Acinetobacter baumannii. The note with it: MH medium, no serum. How it is done: Hemoglobin release was determined spectrophotometrically at 570 nm.
Because only unbound AMP is available to interact with the therapeutic target, the extent of binding between AMPs and serum proteins can have significant effects on efficacy of these drugs. […] This assay estimates the in vivo bioavailability of our AMPs. […] An increase in MIC in the presence of serum is attributed to inhibition of antimicrobial activity due to binding to serum proteins.

Series [3] concerns the molecule itself. Put plainly: RP-HPLC temperature profiling (self-association).

With `CC(=O)N[C@H](CCCCN)C(=O)N[C@H](CC(C)C)C(=O)N[C@H](CCCN)C(=O)N[C@H](CO)C(=O)N[C@H](CC(C)C)C(=O)N[C@H](CC(C)C)C(=O)N[C@H](CCCN)C(=O)N[C@@H](C(=O)N[C@H](CC(C)C)C(=O)N[C@H](CO)C(=O)N[C@H](CCCN)C(=O)N[C@H](C)C(=O)N[C@H](C)C(=O)N[C@H](C)C(=O)N[C@H](C)C(=O)N[C@H](C)C(=O)N[C@H](CC(C)C)C(=O)N[C@H](CCCN)C(=O)N[C@@H](C(=O)N[C@H](CC(C)C)C(=O)N[C@H](CC(C)C)C(=O)N[C@H](CCCN)C(=O)N[C@H](C)C(=O)N[C@H](CC(C)C)C(=O)N[C@H](CO)C(=O)N[C@H](CCCN)C(N)=O)[C@H](C)O)[C@H](C)O` [D85(K13A/K16A)-(Lys^1-6Orn-1), Ac-KL(Orn)SLL(Orn)TLS(Orn)AAAAAL(Orn)TLL(Orn)ALS(Orn)-amide], the “MIC 101887” value in series [1] (strain 101887 (lower line)) amounted to 3.0 µM (≈ 8 µg/mL). In addition, in series [1] (strain 961997 (lower line)), the “MIC 961997” value came out at 1.5 µM (≈ 4 µg/mL). The “MIC 963618” value in series [1] (strain 963618 (lower line)) is 1.5 µM (≈ 4 µg/mL). For the same molecule, the “MIC 964304” value in series [1] (strain 964304 (lower line)) is 1.5 µM (≈ 4 µg/mL). In series [1] (strain 977751 (lower line)), the “MIC 977751” value was 6.0 µM (≈ 16 µg/mL). Further, the “MIC 981653” value in series [1] (strain 981653 (lower line)) came out at 1.5 µM (≈ 4 µg/mL). In addition, the “MIC 1002956” value in series [1] (strain 1002956 (lower line)) is 1.5 µM (≈ 4 µg/mL). In addition, in series [1] (strain 1007660 (lower line)), the “MIC 1007660” value stood at 1.5 µM (≈ 4 µg/mL). Also, in series [1] (strain 1010282 (lower line)), the “MIC 1010282” value amounted to 1.5 µM (≈ 4 µg/mL). Besides, the “MIC 1035166” value in series [1] (strain 1035166 (lower line)) turned out to be 1.5 µM (≈ 4 µg/mL). For the same molecule, the “MIC MB9941” value in series [2] (strain MB9941) was 2.9 µM (≈ 7.74 µg/mL). Moreover, in series [2] (strain MB9949), the “MIC MB9949” value was 2.9 µM (≈ 7.74 µg/mL). The “MIC MB9951” value in series [2] (strain MB9951) worked out at 1.5 µM (≈ 4 µg/mL). The “MIC MB9952” value in series [2] (strain MB9952) turned out to be 1.5 µM (≈ 4 µg/mL). The “MIC MB9953” value in series [2] (strain MB9953) came out at 1.5 µM (≈ 4 µg/mL). Moreover, the “MIC MB9955” value in series [2] (strain MB9955) worked out at 1.5 µM (≈ 4 µg/mL). In addition, the “MIC MB9963” value in series [2] (strain MB9963) was found to be 2.9 µM (≈ 7.74 µg/mL). Also, in the series on A. baumannii strain 649, the “MIC No serum” value was found to be 1.5 µM (≈ 4 µg/mL).

B1: random coil control peptide (RC) (peptide)
peptide: Ac-ELEKGGLEGEKGGKELEK-NH2
B1: in series [3], the binding result is listed as “no binding”.

Values taken from patent US20220105150A1, “AMPHIPATHIC ALPHA-HELICAL ANTIMICROBIAL PEPTIDES TREAT INFECTIONS BY GRAM-NEGATIVE PATHOGENS” (priority 2019, published 2022).
